Measured values published in patent US20080194585A1, “Fungicidal Pyrazine Derivatives” (priority 2005, published 2008).
Marks after values point to notes of the source that are not given here.

Tests used:
Rhizoctonia oryzae = experiment: Test G: turf brown patch, preventive spray on creeping bent grass seedlings; details: 100 = 100% disease control, 0 = no control; for Test G disease control rating: 40 ppm (marked *)
Method: (the causal agent of turf brown patch) and incubated in a saturated atmosphere at 27° C. for 24 h, and then moved to a growth chamber at 27° C. for 5 days, after which disease ratings were made.

[1] = tested on: Puccinia recondita f. sp. tritici; experiment: Test K: wheat leaf rust, preventive spray on wheat seedlings; details: for Test K disease control rating: 40 ppm (marked *), 100 = 100% disease control, 0 = no control
Septoria nodorum = experiment: Test H: wheat glum blotch, preventive spray on wheat seedlings; details: 100 = 100% disease control, 0 = no control
Method: (the causal agent of wheat glum blotch) and incubated in a saturated atmosphere at 20° C. for 48 h, and then moved to a growth chamber at 22° C. for 5 days, after which disease ratings were made.

fusarium graminearium = experiment: Test I: wheat head scab, preventive spray on wheat seedlings; details: 100 = 100% disease control, 0 = no control; for Test I disease control rating: 40 ppm (marked *)
Method: (the causal agent of wheat head scab) and incubated in a saturated atmosphere at 20° C. for 72 h, and then moved to a growth chamber at 22° C. for 5 days, after which disease ratings were made.

Septoria tritici = experiment: Test J: wheat leaf blotch, preventive spray on wheat seedlings; type: in vivo; details: 100 = 100% disease control, 0 = no control; for Test J disease control rating: 40 ppm (marked *)
From the text: A dash (-) indicates no test results.

[2] = tested on: Erysiphe graminis f. sp. tritici; experiment: Test L: wheat powdery mildew, preventive spray on wheat seedlings; details: 100 = 100% disease control, 0 = no control; for Test L disease control rating: 40 ppm (marked *)
Plasmopara viticola = experiment: Test D: grape downy mildew, spray after inoculation of grape seedlings; type: in vivo; details: 100 = 100% disease control, 0 = no control; for Test D disease control rating: 40 ppm (marked *)
From the text: Upon removal, disease ratings were made. […] A dash (-) indicates no test results.

[3] = tested on: Colletotrichum orbiculare; experiment: Test B: cucumber Colletotrichum anthracnose, preventive spray on cucumber seedlings; details: 100 = 100% disease control, 0 = no control; for Test B disease control rating: 40 ppm (marked *)
Pythium aphanidermatum = experiment: Test A: bluegrass pythium blight, preventive spray on bluegrass seedlings; details: for Test A disease control rating: 40 ppm (marked *), 100 = 100% disease control, 0 = no control
Phytophthora infestans = experiment: whole plant or invertebrate; type: in vivo; details: for Test F disease control rating: 40 ppm (marked *), 100 = 100% disease control, 0 = no control

SMILES	Test G disease control rating (Rhizoctonia oryzae)	Test K disease control rating [1]	Test H disease control rating (Septoria nodorum; 40 ppm (marked *))	Test I disease control rating (fusarium graminearium)	Test J disease control rating (Septoria tritici)	Test L disease control rating [2]	Test D disease control rating (Plasmopara viticola)	Test B disease control rating [3]	Test A disease control rating (Pythium aphanidermatum)	Test F disease control rating (Phytophthora infestans)	further results
O=c1c(-n2cccn2)nc(Cl)c(-c2c(F)cccc2F)n1-c1ccccc1F [compound 339]	0* %	89* %	99* %	0* %	100* %	0* %	0* %	0* %	0* %	0* %	
Cc1ccc(-n2c(-c3c(F)cccc3F)c(Cl)nc(-n3ccc(C)n3)c2=O)cc1 [compound 332]	0* %	95* %	94* %	0* %	98* %	71* %	24* %	0* %	0* %	0* %	
CC(C)Cn1c(-c2c(F)cccc2F)cnc(-n2cccn2)c1=O [Compound 342, 6-(2,6-Difluorophenyl)-1-(2-methylpropyl)-3-(1H-pyrazol-1-yl)-2(1H)-pyrazinone]											pest or weed control at 200 ppm (Rhizoctonia oryzae; Waitea circinata, in Agrostis stolonifera, topical, 144 h, read-out: Test G disease control rating, 200 ppm): 95%; pest or weed control at 200 ppm ([1]; Puccinia recondita, in Triticum aestivum, 192 h, read-out: Test K disease control rating): 98%; pest or weed control at 200 ppm (Septoria nodorum; Parastagonospora nodorum, in Triticum aestivum, topical, 168 h, read-out: Test H disease control rating, 200 ppm): 0%; pest or weed control at 200 ppm (fusarium graminearium; Fusarium, in Triticum aestivum, topical, 192 h, read-out: Test I disease control rating, 200 ppm): 0%; pest or weed control at 200 ppm (Septoria tritici; Zymoseptoria tritici, 528 h, 200 ppm, read-out: Test J disease control rating): 82%; pest or weed control at 200 ppm ([2]; Blumeria graminis, in Triticum aestivum, 168 h, read-out: Test L disease control rating, 200 ppm): 96%; pest or weed control at 200 ppm (Plasmopara viticola; Plasmopara viticola, 168 h, 200 ppm, read-out: Test D disease control rating): 0%; pest or weed control at 200 ppm ([3]; Colletotrichum orbiculare, in Cucumis sativus, 144 h, read-out: Test B disease control rating, 200 ppm): 0%; pest or weed control at 200 ppm (Pythium aphanidermatum; Pythium aphanidermatum, 120 h, read-out: Test A disease control rating): 0%; pest or weed control at 200 ppm (Phytophthora infestans; Phytophthora infestans, in Solanum lycopersicum, topical, 144 h, read-out: Test F disease control rating): 0%
Cc1ccc(-n2c(-c3c(F)cccc3F)c(Cl)nc(-n3ccc(C)n3)c2=O)c(C)c1 [compound 335]	0* %	91* %	98* %	0* %	99* %	71* %	0* %	0* %	0* %	0* %	
Cc1ccc(-n2c(-c3c(F)cccc3F)c(Cl)nc(-n3cccn3)c2=O)c(C)c1 [compound 334]	0* %	91* %		0* %	96* %	0* %	0* %	0* %	0* %	0* %	Test H disease control rating (Septoria nodorum; 200 ppm): 0%
O=c1c(-n2cccn2)nc(Cl)c(-c2c(F)cccc2F)n1Cc1ccccc1F [compound 330]	41* %	100* %	99* %	0* %	100* %	71* %	0* %	0* %	0* %	0* %	
Cc1ccc(-n2c(-c3c(F)cccc3F)c(Cl)nc(-n3cccn3)c2=O)cc1 [compound 333]	17* %	99* %	99* %	0* %	98* %	0* %	47* %	37* %	0* %	0* %	
O=c1c(-n2cccn2)nc(Cl)c(-c2c(F)cccc2F)n1-c1cccc(F)c1 [compound 337]	29* %	95* %	99* %	0* %	100* %	0* %	0* %	76* %	0* %	0* %	
Cc1ccn(-c2nc(Cl)c(-c3c(F)cccc3F)n(Cc3ccc(F)cc3)c2=O)n1 [compound 331]	16* %	100* %	100* %	0* %	100* %	76* %	47* %	90* %	0* %	0* %	
Cc1ccn(-c2nc(Cl)c(-c3c(F)cccc3F)n(-c3cccc(F)c3)c2=O)n1 [compound 338]	16* %	99* %	100* %	0* %	98* %	0* %	0* %	80* %	0* %	0* %	
Cc1ccn(-c2nc(Cl)c(-c3c(F)cccc3F)n(-c3ccccc3F)c2=O)n1 [compound 340]	0* %	95* %	99* %	0* %	95* %	0* %	0* %	0* %	0* %	0* %	
